Experiments:
[1] = Volume distribution was determined; format: ADME, organism-based, Canis lupus familiaris; details: dog, in vivo
[2] = Plasma clearance was determined; format: ADME, organism-based, Canis lupus familiaris; details: dog
Oxytocin receptor = target: T1, Oxytocin receptor (Homo sapiens, UniProt P30559); experiment: Inhibition of binding of [3H]oxytocin with human oxytocin receptor
T1 sequence (P30559 whole entry): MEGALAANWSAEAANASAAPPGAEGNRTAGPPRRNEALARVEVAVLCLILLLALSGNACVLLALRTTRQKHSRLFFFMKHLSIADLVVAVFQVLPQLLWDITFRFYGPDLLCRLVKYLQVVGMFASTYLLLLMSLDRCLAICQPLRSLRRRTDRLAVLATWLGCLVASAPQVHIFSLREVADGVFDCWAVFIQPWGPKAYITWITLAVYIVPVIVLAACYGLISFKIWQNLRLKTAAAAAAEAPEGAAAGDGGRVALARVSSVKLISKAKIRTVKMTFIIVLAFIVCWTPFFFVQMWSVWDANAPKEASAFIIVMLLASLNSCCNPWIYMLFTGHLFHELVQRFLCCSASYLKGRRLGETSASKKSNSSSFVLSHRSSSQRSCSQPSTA

[3] = Bioavailability; format: ADME, organism-based, Canis lupus familiaris; details: dog, in vivo

| SMILES | Vd [1] [L/kg] | clearance [2] [mL/min/kg] | Ki (Oxytocin receptor) [nM] | bioavailability [3] [%] |
| --- | --- | --- | --- | --- |
| CC(=O)NC1N=C(c2ccccc2)c2ccccc2N(CC(=O)NCCc2cccc(Cl)c2)C1=O (centres undefined) | 0.4 | 6 | 100 | – |
| CC(=O)CCCC(=O)NC1N=C(C)c2ccccc2N(CC(=O)N[C@@H](Cc2ccc(Cl)c(Cl)c2)C(N)=O)C1=O (some centres undefined) | – | – | 200 | – |
| CC(=O)NC1N=C(c2ccccc2)c2ccccc2N(CC(=O)NCCc2ccc(Cl)c(Cl)c2)C1=O (centres undefined) | – | – | 100 | – |
| CC(=O)CCCC(=O)NC1N=C(c2ccccc2)c2ccccc2N(CC(=O)NC2CCc3ccccc3C2)C1=O (centres undefined) | 0.2 | 0.3 | > 5010 | – |
| CC(=O)CCCC(=O)NC1N=C(c2ccccc2)c2ccccc2N(CC(=O)NCCCc2cccc(Cl)c2)C1=O (centres undefined) | – | – | 100 | – |
| CC(=O)CCCC(=O)NC1N=C(c2ccccc2)c2ccccc2N(CC(=O)NCCc2cccc3ccccc23)C1=O (centres undefined) | – | – | 15.8 | – |
| CC(=O)NC1N=C(c2ccccc2)c2ccccc2N(CC(=O)N[C@@H](Cc2ccc(Cl)c(Cl)c2)C(N)=O)C1=O (some centres undefined) | – | – | 25.1 | – |
| CC(=O)NC1N=C(c2ccccc2)c2ccccc2N(CC(=O)NCCc2cccc3ccccc23)C1=O (centres undefined) | – | – | 100 | – |
| CC(=O)CCCC(=O)NC1N=C(c2ccccc2)c2ccccc2N(CC(=O)NCCc2ccccc2Cl)C1=O (centres undefined) | – | – | 200 | – |
| CC(=O)CCCC(=O)NC1N=C(c2ccccc2)c2ccccc2N(CC(=O)NCCc2ccccc2)C1=O (centres undefined) | – | – | 316 | – |
| NC(=O)[C@H](Cc1ccc(Cl)c(Cl)c1)NC(=O)CN1C(=O)C(NC(=O)CN2CCOCC2)N=C(c2ccccc2)c2ccccc21 (some centres undefined) | 2.8 | 33 | 39.8 | – |
| CS(=O)(=O)NC1N=C(c2ccccc2)c2ccccc2N(CC(=O)N[C@@H](Cc2ccc(Cl)c(Cl)c2)C(N)=O)C1=O (some centres undefined) | – | – | 501 | – |
| CC(=O)CCCC(=O)NC1N=C(C2CCCCC2)c2ccccc2N(CC(=O)N[C@@H](Cc2ccc(Cl)c(Cl)c2)C(N)=O)C1=O (some centres undefined) | – | – | 31.6 | – |
| CC(=O)CCCC(=O)NC1N=C(c2ccccc2)c2ccccc2N(CC(=O)N[C@@H](CC2CCCCC2)C(N)=O)C1=O (some centres undefined) | – | – | 794 | – |
| CC(=O)CCCC(=O)NC1N=C(Cn2ccnc2)c2ccccc2N(CC(=O)N[C@@H](Cc2ccc(Cl)c(Cl)c2)C(N)=O)C1=O (some centres undefined) | – | – | 794 | – |
| CC(=O)CCCC(=O)NC1N=C(c2ccccc2)c2ccccc2N(CC(=O)NCCc2cccc(Cl)c2)C1=O (centres undefined) | 0.3 | 3 | 20 | – |
| CC(=O)NC1N=C(c2ccccc2)c2ccccc2N(CC(=O)NCc2nc(-c3ccccc3)no2)C1=O (centres undefined) | – | – | 794 | – |
| CC(=O)CCCC(=O)NC1N=C(c2ccccc2)c2ccccc2N(CC(=O)NCCc2ccc(Cl)c(Cl)c2)C1=O (centres undefined) | 0.2 | 4 | 25.1 | 12 |
| CC(=O)CCCC(=O)NC1N=C(c2ccccc2)c2ccccc2N(CC(=O)N[C@@H](Cc2ccc(Cl)c(Cl)c2)C(N)=O)C1=O (some centres undefined) | 0.6 | 62 | 7.94 | > 20 |
| CC(=O)CCCC(=O)NC1N=C(c2ccccc2)c2ccccc2N(CC(=O)NCCc2ccc3ccccc3c2)C1=O (centres undefined) | – | – | 15.8 | – |
| CC(=O)NC1N=C(c2ccccc2)c2ccccc2N(CC(=O)NCc2nc(-c3ccc(Cl)c(Cl)c3)cs2)C1=O (centres undefined) | – | – | > 5010 | – |
| CC(=O)CCCC(=O)NC1N=C(c2ccccc2)c2ccccc2N(CC(=O)NC2=NOC(c3ccccc3)C2)C1=O (centres undefined) | – | – | > 3160 | – |
| CC(=O)NC1N=C(c2ccccc2)c2ccccc2N(CC(=O)N[C@H](Cc2ccc(Cl)c(Cl)c2)C(N)=O)C1=O (some centres undefined) | – | – | 794 | – |
| CC(=O)NC1N=C(c2ccccc2)c2ccccc2N(CC(=O)N(C)CCc2cccc(Cl)c2)C1=O (centres undefined) | – | – | 1580 | – |
| CC(=O)CCCC(=O)NC1N=C(c2ccccc2)c2ccccc2N(CC(=O)N[C@@H](Cc2ccc(F)cc2)C(N)=O)C1=O (some centres undefined) | – | – | 79.4 | – |

— ChEMBL document CHEMBL1134064, “Structure-activity relationship investigations of a potent and selective benzodiazepine oxytocin antagonist” (Bioorg Med Chem Lett, 2001)
